Measured values published in patent US20090191193A1, “Aryl Vinyl Sulfides, Sulfones, Sulfoxides and Sulfonamides, Derivatives Thereof and Therapeutic Uses Thereof” (TEMPLE UNIVERSITY-OF THE COMMONWEALTH SYSTEM OF HIGHER …, priority 2006, published 2009).

Experiments:
[1] = test system: H157 (non small cell lung carcinoma); assay: Effect on tumor cell lines, viable cell count by trypan blue exclusion (Latham et al.): H157; type: cell-based; settings: Homo sapiens, NCI-H157, H157 non small cell lung carcinoma cells, viable cell count 96 hours after treatment
Experimental: (§1) The effect of the compounds of the invention on tumor cells was determined by the assay described by Latham et al., Oncogene 12:827-837 (1996). Tumor cells DU145 (prostate cancer), K562 (chronic myelogenous leukaemia), BT20 (breast carcinoma), H157 (non small cell lung carcinoma), or DLD1 (colon carcinoma) were plated in 6-well dishes at a cell density of 1.0×10^5 cells per 35-mm^2 well. The plated cells were treated 24 hours later with a compound of the invention dissolved in DMSO at multiple concentrations ranging from 100 nM to 10 μM. The total number of viable cells was determined 96 hours later by trypsinizing the wells and counting the number of viable cells, as determined by trypan blue exclusion, using a hemacytometer. Normal HFL cells were treated with the same compounds under the same conditions of concentration and time.

BT20 (breast carcinoma) = assay: Effect on tumor cell lines, viable cell count by trypan blue exclusion (Latham et al.): BT20; type: cell-based; settings: Homo sapiens, BT-20, BT20 breast carcinoma cells, viable cell count 96 hours after treatment
Experimental: as §1

DU145 (prostate cancer) = assay: Effect on tumor cell lines, viable cell count by trypan blue exclusion (Latham et al.): DU145; type: cell-based; settings: DU145 prostate cancer cells, viable cell count 96 hours after treatment
DLD1 (colon carcinoma) = assay: Effect on tumor cell lines, viable cell count by trypan blue exclusion (Latham et al.): DLD1; type: cell-based; settings: Homo sapiens, DLD-1, DLD1 colon carcinoma cells, viable cell count 96 hours after treatment
Experimental: as §1

[2] = test system: K562 (chronic myelogenous leukaemia); assay: Effect on tumor cell lines, viable cell count by trypan blue exclusion (Latham et al.): K562; type: cell-based; settings: K562 chronic myelogenous leukaemia cells, viable cell count 96 hours after treatment

SMILES | IC50 [1] | IC50 (BT20 (breast carcinoma)) | IC50 (DU145 (prostate cancer); Homo sapiens, DU-145, 96 h) | IC50 (DLD1 (colon carcinoma)) | melting point | IC50 ([2]; Homo sapiens, K562, 96 h) | IC50 (DU145 (prostate cancer)) | IC50 [2]
COc1cccc(OC)c1/C=C(\C(N)=O)S(=O)(=O)c1ccccc1 [Example 179] | 10 to 20 µM | 10 to 20 µM | 10 to 20 µM | 10 to 20 µM | 168 to 172 °C |  |  | 
NC(=O)/C(=C\c1ccc([N+](=O)[O-])cc1)S(=O)(=O)Cc1ccc(Cl)cc1 [Example 176] | > 20 µM | > 20 µM | > 20 µM | > 20 µM | 190 to 192 °C |  |  | 
COc1cc(OC)c(/C=C(\C(N)=O)S(=O)(=O)Cc2ccc(Cl)cc2)c(OC)c1 [Example 174] | > 20 µM | > 20 µM | > 20 µM | > 20 µM | 176 to 178 °C |  |  | 
COc1ccc(S(=O)(=O)/C(=C/c2c(OC)cccc2OC)C(N)=O)cc1 [Example 183] | > 20 µM | > 20 µM | > 20 µM | > 20 µM | 160 to 162 °C |  |  | 
COc1cccc(OC)c1/C=C(\C(N)=O)S(=O)(=O)Cc1ccc(Cl)cc1 [Example 175] | 10 to 20 µM | 10 to 20 µM | 10 to 20 µM | 10 to 20 µM | 150 to 154 °C |  |  | 
NC(=O)/C(=C\c1ccc(F)cc1)S(=O)(=O)c1ccccc1 [Example 177] | 1 to 10 µM | 1 to 10 µM | 1 to 10 µM | 1 to 10 µM | 151 to 154 °C |  |  | 
COc1ccc(CS(=O)(=O)/C(=C/c2c(OC)cccc2OC)C(N)=O)cc1 [Example 173] | > 20 µM | > 20 µM | > 20 µM | > 20 µM | 166 to 168 °C |  |  | 
COc1ccc(CS(=O)(=O)/C(=C/c2ccc(F)cc2)C(N)=O)cc1 [Example 172] | > 20 µM | > 20 µM | > 20 µM | > 20 µM | 158 to 161 °C |  |  | 
COc1ccc(S(=O)(=O)/C(=C/c2ccc([N+](=O)[O-])cc2)C(N)=O)cc1 [Example 184] | > 20 µM | > 20 µM | > 20 µM | > 20 µM | 172 to 174 °C |  |  | 
NC(=O)/C(=C\c1ccc(Cl)cc1)S(=O)(=O)Cc1ccc(Cl)cc1Cl [Example 150] | > 20 µM | > 20 µM | > 20 µM | > 20 µM | 201 to 205 °C |  |  | 
N#C/C(=C\c1c[nH]c2ccc(Cl)cc12)S(=O)(=O)Cc1ccc(F)cc1 [Example 77] |  |  | 50 to 100 µM |  | 250 to 265 °C | 50 to 100 µM |  | 
COc1ccc(NS(=O)(=O)/C(C#N)=C/c2sccc2C)cc1 [Example 281] |  |  | > 100 µM |  | 154 to 156 °C | > 100 µM |  | 
N#C/C(=C\c1ccc(Cl)cc1Cl)S(=O)(=O)Cc1ccc(F)cc1 [Example 85] |  |  | > 100 µM |  | 153 to 163 °C | 50 to 100 µM |  | 
COc1cc(/C=C(\C#N)S(=O)(=O)Cc2ccc(F)cc2)cc(OC)c1 [Example 86] |  |  | > 100 µM |  | 120 to 123 °C | > 100 µM |  | 
COc1cc(/C=C(\C#N)S(=O)(=O)Cc2ccc(Cl)cc2Cl)cc(OC)c1OC [Example 105] |  |  | 25 to 50 µM |  | 147 to 152 °C | 10 to 25 µM |  | 
N#C/C(=C\c1ccc(Cl)cc1)S(=O)(=O)Cc1ccc(Cl)cc1 [Example 61] |  |  | 50 to 100 µM |  | 145 to 168 °C | 25 to 50 µM |  | 
N#C/C(=C\c1c[nH]c2ccc(Br)cc12)S(=O)(=O)Nc1ccc(Br)cc1 [Example 222] |  |  | 25 to 50 µM |  | 242 to 253 °C | 25 to 50 µM |  | 
N#C/C(=C\c1c[nH]c2ccc(Cl)cc12)S(=O)(=O)Cc1ccc(Cl)cc1Cl [Example 75] |  |  |  |  | 282 to 292 °C |  | 50 to 100 µM | 50 to 100 µM
COc1cc(OC)c(/C=C(\C#N)S(=O)(=O)Nc2ccc(Br)cc2)c(OC)c1 [Example 215] |  |  | 25 to 50 µM |  | 197 to 199 °C | 10 to 25 µM |  | 
N#C/C(=C\c1ccccc1O)S(=O)(=O)Cc1ccccc1 [Example 125] |  |  | 50 to 100 µM |  | 135 to 138 °C | > 100 µM |  | 
COc1cc(OC)c(OC)cc1/C=C(\C#N)S(=O)(=O)Nc1ccc(C)cc1C [Example 258] |  |  | > 100 µM |  | 161 to 163 °C | 50 to 100 µM |  | 
COc1ccc(/C=C(\C#N)S(=O)(=O)Cc2ccccc2)cc1OC [Example 133] |  |  | > 100 µM |  | 170 to 174 °C | 50 to 100 µM |  | 
COc1ccc(NS(=O)(=O)/C(C#N)=C/c2c(F)c(F)c(F)c(F)c2F)cc1 [Example 192] |  |  | 10 to 25 µM |  | 100 to 102 °C | 1 to 10 µM |  | 
N#C/C(=C\c1ccc(Br)cc1)S(=O)(=O)Nc1ccccc1Oc1ccccc1 [Example 196] |  |  | 50 to 100 µM |  | 129 to 134 °C | 50 to 100 µM |  | 
N#C/C(=C\c1ccc(Cl)cc1)S(=O)(=O)Cc1ccc(F)cc1 [Example 89] |  |  | 50 to 100 µM |  | 150 to 155 °C | 50 to 100 µM |  | 
CCOc1cc(/C=C(\C#N)S(=O)(=O)Cc2ccc(Cl)cc2)ccc1O [Example 54] |  |  | > 100 µM |  | 155 to 169 °C | 50 to 100 µM |  | 
N#C/C(=C\c1ccc(F)cc1Cl)S(=O)(=O)Cc1ccc(Cl)cc1 [Example 41] |  |  | 50 to 100 µM |  | 124 to 126 °C | 50 to 100 µM |  | 
